Laboratory results taken from ChEMBL document CHEMBL1201862, “PubChem BioAssay data set” (2004).
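How tested: cells in 96-well plates exposed to compound for 48 hours at five concentrations. The concentration for 50% growth inhibition is given as GI50.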 The source made the active and inactive calls. No stated cut-off is given here; in the data, active = GI50 up to about 1.1 µM and inactive = higher.

Key:
Experiment in all cases: DTP human tumour cell line panel, 48 h
A498 = tested on: A498
A549 = tested on: A549
ACHN = tested on: ACHN
CAKI-1 = tested on: CAKI-1
COLO 205 = tested on: COLO 205
HL-60 = tested on: HL-60
K562 = tested on: K562
M14 = tested on: M14
MCF7 = tested on: MCF7
MOLT-4 = tested on: MOLT-4
Malme-3M = tested on: Malme-3M
OVCAR-4 = tested on: OVCAR-4
SF-539 = tested on: SF-539
SK-OV-3 = tested on: SK-OV-3
SW-620 = tested on: SW-620
TK-10 = tested on: TK-10
U-251 = tested on: U-251
UACC-62 = tested on: UACC-62
UO-31 = tested on: UO-31
SK-MEL-28 = tested on: SK-MEL-28

SMILES | GI50 (A498) | GI50 (A549) | GI50 (ACHN) | GI50 (CAKI-1) | GI50 (COLO 205) | GI50 (HL-60) | GI50 (K562) | GI50 (M14) | GI50 (MCF7) | GI50 (MOLT-4) | GI50 (Malme-3M) | GI50 (OVCAR-4) | GI50 (SF-539) | GI50 (SK-OV-3) | GI50 (SW-620) | GI50 (TK-10) | GI50 (U-251) | GI50 (UACC-62) | GI50 (UO-31) | GI50 (SK-MEL-28)
Nc1nc(N)c2c(Cl)c(CNc3ccc(C(=O)NC(CC(=O)O)C(=O)O)cc3)ccc2n1 (configuration not stated) | < 0.01 µM (active) | < 0.01 µM (active) | < 0.01 µM (active) | < 0.01 µM (active) | < 0.01 µM (active) | < 0.01 µM (active) | < 0.01 µM (active) | < 0.01 µM (active) | < 0.01 µM (active) | < 0.01 µM (active) | 17.7 µM (inactive) | 3.69 µM (inactive) | < 0.01 µM (active) | < 0.01 µM (active) | < 0.01 µM (active) | < 0.01 µM (active) | < 0.01 µM (active) | < 0.01 µM (active) | < 0.01 µM (active) | –
c1cc2nnnn2nc1N1CCCC1 | > 100 µM (inactive) | > 100 µM (inactive) | > 100 µM (inactive) | > 100 µM (inactive) | > 100 µM (inactive) | > 100 µM (inactive) | > 100 µM (inactive) | > 100 µM (inactive) | > 100 µM (inactive) | > 100 µM (inactive) | – | > 100 µM (inactive) | > 100 µM (inactive) | > 100 µM (inactive) | > 100 µM (inactive) | > 100 µM (inactive) | > 100 µM (inactive) | > 100 µM (inactive) | > 100 µM (inactive) | > 100 µM (inactive)
Cn1c(=O)c2c(nc3n2CCCC(=O)N3CCCCl)n(C)c1=O | > 100 µM (inactive) | > 100 µM (inactive) | > 100 µM (inactive) | > 100 µM (inactive) | > 100 µM (inactive) | > 100 µM (inactive) | > 100 µM (inactive) | > 100 µM (inactive) | > 100 µM (inactive) | > 100 µM (inactive) | – | > 100 µM (inactive) | – | > 100 µM (inactive) | > 100 µM (inactive) | > 100 µM (inactive) | > 100 µM (inactive) | > 100 µM (inactive) | > 100 µM (inactive) | > 100 µM (inactive)
CCOc1cc(NC(C)=O)ccc1C(=O)NN1C(=O)/C(=C/c2cc(OC)c(OC)c(OC)c2)N=C1c1ccccc1 | > 100 µM (inactive) | > 100 µM (inactive) | > 100 µM (inactive) | > 100 µM (inactive) | > 100 µM (inactive) | > 100 µM (inactive) | > 100 µM (inactive) | 64.9 µM (inactive) | > 100 µM (inactive) | > 100 µM (inactive) | 53.5 µM (inactive) | > 100 µM (inactive) | > 100 µM (inactive) | > 100 µM (inactive) | > 100 µM (inactive) | – | – | > 100 µM (inactive) | > 100 µM (inactive) | > 100 µM (inactive)
Cc1ccc(C2=Nn3c(nc4sc(-c5ccccc5)cc4c3=O)SC2)cc1 | > 100 µM (inactive) | > 100 µM (inactive) | > 100 µM (inactive) | > 100 µM (inactive) | > 100 µM (inactive) | > 100 µM (inactive) | > 100 µM (inactive) | – | > 100 µM (inactive) | > 100 µM (inactive) | > 100 µM (inactive) | > 100 µM (inactive) | > 100 µM (inactive) | > 100 µM (inactive) | > 100 µM (inactive) | > 100 µM (inactive) | > 100 µM (inactive) | > 100 µM (inactive) | > 100 µM (inactive) | > 100 µM (inactive)
CN(C)CCNc1c2ccccc2c2c3c(cccc13)C(=O)N(CCN(C)C)C2=O | 0.641 µM (active) | 0.193 µM (active) | – | 0.423 µM (active) | 0.0755 µM (active) | 0.229 µM (active) | 0.0522 µM (active) | – | 0.0416 µM (active) | 0.0625 µM (active) | 0.348 µM (active) | 0.0455 µM (active) | 0.374 µM (active) | 0.221 µM (active) | 0.0532 µM (active) | – | 0.121 µM (active) | 0.308 µM (active) | 1.61 µM (inactive) | 0.0735 µM (active)
COc1cc2c3c(c4cc(OC)c(OC)cc4c2cc1OC)C(=O)C1CCC(=O)N1C3 (configuration not stated) | 14.9 µM (inactive) | – | 5.86 µM (inactive) | 8.75 µM (inactive) | 24.5 µM (inactive) | 41.3 µM (inactive) | 14 µM (inactive) | – | 11.9 µM (inactive) | 3.27 µM (inactive) | 8.75 µM (inactive) | 12.8 µM (inactive) | 10.9 µM (inactive) | 14.2 µM (inactive) | 15.5 µM (inactive) | 12.8 µM (inactive) | 26.3 µM (inactive) | 16.6 µM (inactive) | – | 19.8 µM (inactive)
O=c1[nH]c2ccsc2c(=O)n1COCc1ccccc1 | > 100 µM (inactive) | > 100 µM (inactive) | > 100 µM (inactive) | > 100 µM (inactive) | > 100 µM (inactive) | > 100 µM (inactive) | > 100 µM (inactive) | > 100 µM (inactive) | > 100 µM (inactive) | > 100 µM (inactive) | > 100 µM (inactive) | > 100 µM (inactive) | > 100 µM (inactive) | – | > 100 µM (inactive) | > 100 µM (inactive) | > 100 µM (inactive) | – | > 100 µM (inactive) | > 100 µM (inactive)
CC1NC(=O)CC(c2ccccc2)N(N=O)C1c1ccccc1 (configuration not stated) | 8.89 µM (inactive) | 53.2 µM (inactive) | – | 37.1 µM (inactive) | 26.6 µM (inactive) | 24.8 µM (inactive) | 28 µM (inactive) | – | 44.3 µM (inactive) | 31.4 µM (inactive) | 52.5 µM (inactive) | 19.9 µM (inactive) | 23.4 µM (inactive) | 22.8 µM (inactive) | 20.6 µM (inactive) | – | 39.6 µM (inactive) | 35.4 µM (inactive) | 50.8 µM (inactive) | 40.8 µM (inactive)
N#Cc1ccccc1NC(=O)C(=O)c1c(O)c2ccccc2oc1=O | > 100 µM (inactive) | > 100 µM (inactive) | > 100 µM (inactive) | > 100 µM (inactive) | – | > 100 µM (inactive) | > 100 µM (inactive) | > 100 µM (inactive) | > 100 µM (inactive) | – | > 100 µM (inactive) | > 100 µM (inactive) | > 100 µM (inactive) | > 100 µM (inactive) | > 100 µM (inactive) | > 100 µM (inactive) | > 100 µM (inactive) | > 100 µM (inactive) | > 100 µM (inactive) | > 100 µM (inactive)
O=C(NCCCCCCNCc1cccc2ccccc12)Nc1cccc2ccccc12 | > 100 µM (inactive) | > 100 µM (inactive) | > 100 µM (inactive) | > 100 µM (inactive) | > 100 µM (inactive) | > 100 µM (inactive) | > 100 µM (inactive) | 34.3 µM (inactive) | > 100 µM (inactive) | > 100 µM (inactive) | > 100 µM (inactive) | > 100 µM (inactive) | > 100 µM (inactive) | – | > 100 µM (inactive) | > 100 µM (inactive) | > 100 µM (inactive) | > 100 µM (inactive) | 51.6 µM (inactive) | > 100 µM (inactive)
CC1=CC(=O)/C(=C/NC(=S)c2ccncc2)C(=O)O1 | > 100 µM (inactive) | > 100 µM (inactive) | > 100 µM (inactive) | > 100 µM (inactive) | > 100 µM (inactive) | > 100 µM (inactive) | – | > 100 µM (inactive) | > 100 µM (inactive) | > 100 µM (inactive) | 83.2 µM (inactive) | > 100 µM (inactive) | > 100 µM (inactive) | > 100 µM (inactive) | > 100 µM (inactive) | > 100 µM (inactive) | > 100 µM (inactive) | > 100 µM (inactive) | > 100 µM (inactive) | > 100 µM (inactive)
Cc1cc(S(=O)(=O)[N-]/C(=N/S(=O)(=O)c2ccc(Cl)cc2)[n+]2ccc(N(C)C)cc2)c(S)cc1Cl | 26.4 µM (inactive) | – | > 100 µM (inactive) | > 100 µM (inactive) | – | 34.8 µM (inactive) | 1.92 µM (inactive) | 35.3 µM (inactive) | 47.9 µM (inactive) | 0.656 µM (active) | – | 55.5 µM (inactive) | 83.4 µM (inactive) | 41.2 µM (inactive) | 58.3 µM (inactive) | 49.2 µM (inactive) | 47 µM (inactive) | – | 79.4 µM (inactive) | > 100 µM (inactive)
O=S(=O)(O)c1cc(/N=[N+](\[O-])c2cc(S(=O)(=O)O)c3ccccc3c2)cc2ccccc12 | > 100 µM (inactive) | > 100 µM (inactive) | > 100 µM (inactive) | 23.1 µM (inactive) | > 100 µM (inactive) | 30 µM (inactive) | 30.7 µM (inactive) | 35.7 µM (inactive) | 30.1 µM (inactive) | – | 45.5 µM (inactive) | 20.5 µM (inactive) | 16.8 µM (inactive) | > 100 µM (inactive) | 31.8 µM (inactive) | > 100 µM (inactive) | 60.4 µM (inactive) | > 100 µM (inactive) | 20.9 µM (inactive) | > 100 µM (inactive)
Cc1ccc2c(c1)[n+]([O-])c(N)n[n+]2[O-] | 75.3 µM (inactive) | > 100 µM (inactive) | > 100 µM (inactive) | > 100 µM (inactive) | 63.1 µM (inactive) | > 100 µM (inactive) | > 100 µM (inactive) | > 100 µM (inactive) | > 100 µM (inactive) | > 100 µM (inactive) | – | > 100 µM (inactive) | > 100 µM (inactive) | > 100 µM (inactive) | > 100 µM (inactive) | > 100 µM (inactive) | > 100 µM (inactive) | > 10 µM (inactive) | > 100 µM (inactive) | > 100 µM (inactive)
